Data as given in ChEMBL document CHEMBL5108019, “Discovery of a novel Pleuromutilin derivative as anti-IPF lead compound via high-throughput assay” (Eur J Med Chem, 2022).
The source made the active and inactive calls. The rule behind the calls is not given here.

What was measured:
[1] = target: Transforming growth factor beta-1 proprotein/Mothers against decapentaplegic homolog 3 (Mus musculus) (UniProt P04202+Q8BUN5); assay: Inhibition of TGF-beta1/Smad3 signalling in TGF-beta1 treated mouse NIH3T3 cells transfected with (CAGA)12-Lux reporter gene assessed as suppressive ratio at 10 uM incubated for 18 hrs by luciferase based analysis relative to control; type: cell-based; design: scale not given: the % may be the effect or the level left
Sequence of Transforming growth factor beta-1 proprotein/Mothers against decapentaplegic homolog 3 (Mus musculus) (P04202 279-390 limits assumed): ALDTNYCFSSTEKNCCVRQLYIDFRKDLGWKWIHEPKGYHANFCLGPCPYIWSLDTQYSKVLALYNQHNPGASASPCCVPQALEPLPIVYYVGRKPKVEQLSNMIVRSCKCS
Sequence of Transforming growth factor beta-1 proprotein/Mothers against decapentaplegic homolog 3 (Mus musculus) (Q8BUN5 2-425 partner limits assumed): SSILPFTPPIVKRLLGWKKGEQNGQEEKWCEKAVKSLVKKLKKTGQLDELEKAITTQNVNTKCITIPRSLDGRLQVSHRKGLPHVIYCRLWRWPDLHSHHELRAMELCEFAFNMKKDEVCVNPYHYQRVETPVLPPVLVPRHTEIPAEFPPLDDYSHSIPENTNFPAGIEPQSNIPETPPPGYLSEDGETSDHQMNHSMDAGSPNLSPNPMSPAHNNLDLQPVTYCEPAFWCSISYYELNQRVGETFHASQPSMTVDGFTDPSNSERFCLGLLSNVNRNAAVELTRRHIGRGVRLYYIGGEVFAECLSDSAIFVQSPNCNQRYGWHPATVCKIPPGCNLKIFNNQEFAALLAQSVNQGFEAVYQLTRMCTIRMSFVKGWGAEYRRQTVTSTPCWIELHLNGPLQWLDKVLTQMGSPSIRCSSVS

Staphylococcus aureus = assay: Antibacterial activity against Staphylococcus aureus assessed as bacterial growth inhibition incubated for 24 hrs; type: functional
Escherichia coli = assay: Antibacterial activity against Escherichia coli assessed as bacterial growth inhibition incubated for 24 hrs; type: functional
Bacillus subtilis = assay: Antibacterial activity against Bacillus subtilis assessed as bacterial growth inhibition incubated for 24 hrs; type: functional
[2] = Inhibition of TGF-beta1 induced cell proliferation in mouse MLg cells measured after 24 hrs by MTT assay; type: functional, cell-based
[3] = target: Transforming growth factor beta-1 proprotein/Mothers against decapentaplegic homolog 3 (Mus musculus, UniProt P04202+Q8BUN5); assay: Inhibition of TGF-beta1/Smad3 signalling in TGF-beta1 treated mouse NIH3T3 cells transfected with (CAGA)12-Lux reporter gene incubated for 18 hrs by luciferase based analysis; type: cell-based
Sequence of Transforming growth factor beta-1 proprotein/Mothers against decapentaplegic homolog 3 (P04202 279-390 limits assumed): as the sequence (P04202 279-390 limits assumed) above
Sequence of Transforming growth factor beta-1 proprotein/Mothers against decapentaplegic homolog 3 (Q8BUN5 2-425 limits assumed): as the sequence (Q8BUN5 2-425 partner limits assumed) above

[4] = Cmax in Sprague-Dawley rat at 10 mg/kg, iv measured for 12 hrs by LC-MS/MS analysis; type: ADME, organism-based; design: dose 10 mg/kg, time 12 hrs, route iv; settings: in vivo
[5] = AUC (0 to t) in Sprague-Dawley rat at 10 mg/kg, iv measured for 12 hrs by LC-MS/MS analysis; type: ADME, organism-based; design: dose 10 mg/kg, time 12 hrs, route iv; settings: in vivo
[6] = Tmax in Sprague-Dawley rat at 10 mg/kg, iv measured for 12 hrs by LC-MS/MS analysis; type: ADME, organism-based; settings: in vivo
[7] = Half life in Sprague-Dawley rat at 10 mg/kg, iv measured for 12 hrs by LC-MS/MS analysis; type: ADME, organism-based; settings: in vivo
[8] = Clearance in Sprague-Dawley rat at 10 mg/kg, iv measured for 12 hrs by LC-MS/MS analysis; type: ADME, organism-based; settings: in vivo
[9] = Cmax in Sprague-Dawley rat at 100 mg/kg, po measured for 18 hrs by LC-MS/MS analysis; type: ADME, organism-based; design: dose 100 mg/kg, time 18 hrs, route po; settings: in vivo
[10] = AUC (0 to t) in Sprague-Dawley rat at 100 mg/kg, po measured for 18 hrs by LC-MS/MS analysis; type: ADME, organism-based; design: dose 100 mg/kg, time 18 hrs, route po; settings: in vivo
[11] = Tmax in Sprague-Dawley rat at 100 mg/kg, po measured for 18 hrs by LC-MS/MS analysis; type: ADME, organism-based; settings: in vivo
[12] = Half life in Sprague-Dawley rat at 100 mg/kg, po measured for 18 hrs by LC-MS/MS analysis; type: ADME, organism-based; settings: in vivo
[13] = Clearance in Sprague-Dawley rat at 100 mg/kg, po measured for 18 hrs by LC-MS/MS analysis; type: ADME, organism-based; settings: in vivo
[14] = Oral bioavailability in Sprague-Dawley rat at 100 mg/kg measured for 18 hrs by LC-MS/MS analysis; type: ADME, organism-based; settings: in vivo
[15] = Toxicity in C57BL/6 mouse assessed as animal survival at 1000 mg/kg, IG administered as single dose; type: organism-based; settings: in vivo, po
[16] = Toxicity in C57BL/6 mouse assessed as animal survival at 500 mg/kg, IG administered once every day for 7 days; type: organism-based; settings: in vivo, po, 168 h, time 7 day
[17] = Toxicity in C57BL/6 mouse assessed as animal survival at 500 mg/kg, po administered once every day for 30 days; type: organism-based; settings: in vivo, 720 h, time 30 day
[18] = Toxicity in C57BL/6 mouse assessed as toxic symptoms at 500 mg/kg, po administered once every day for 30 days; type: organism-based; settings: in vivo, 720 h, time 30 day
Mus musculus [19] = assay: Antifibrotic activity against BLM-induced pulmonary fibrosis in C57BL/6 mouse model assessed as improvement in pulmonary alveolar structure damage at 100 to 200 mg/kg, po administered once daily starting from day 7 post BLM treatment and measured on day 14 by H and E staining based analysis; type: functional, organism-based; settings: dose 100-200 mg/kg, time 14.0 day
Mus musculus [20] = assay: Antifibrotic activity against BLM-induced pulmonary fibrosis in C57BL/6 mouse model assessed as improvement in forced vital capacity at 200 mg/kg, po administered once daily starting from day 7 post BLM treatment and measured on day 14 by plethysmography chamber based pulmonary function analysis; type: functional; settings: time 14 day
Mus musculus [21] = assay: Antifibrotic activity against BLM-induced pulmonary fibrosis in C57BL/6 mouse model assessed as improvement in dynamic compliance at 200 mg/kg, po administered once daily starting from day 7 post BLM treatment and measured on day 14 by plethysmography chamber based pulmonary function analysis; type: functional; settings: time 14 day
Mus musculus [22] = assay: Antifibrotic activity against BLM-induced pulmonary fibrosis in C57BL/6 mouse model assessed as improvement in inspiratory resistance at 200 mg/kg, po administered once daily starting from day 7 post BLM treatment and measured on day 14 by plethysmography chamber based pulmonary function analysis; type: functional; settings: time 14 day
Mus musculus [23] = assay: Antifibrotic activity against BLM-induced pulmonary fibrosis in C57BL/6 mouse model assessed as improvement in expiratory resistance at 200 mg/kg, po administered once daily starting from day 7 post BLM treatment and measured on day 14 by plethysmography chamber based pulmonary function analysis; type: functional, organism-based; settings: time 14.0 day
Mus musculus [24] = assay: (§1) Antifibrotic activity against BLM-induced pulmonary fibrosis in C57BL/6 mouse model assessed as reduction in fibrosis region at 200 mg/kg, po administered once daily starting from day 7 post BLM treatment and measured on day 14 by hematoxylin-eosin and Masson trichrome staining based analysis relative to control; type: functional, organism-based; settings: time 14.0 day
Mus musculus [25] = assay: as §1, with “100” for “200”; type: functional, organism-based; settings: time 14.0 day
Mus musculus [26] = assay: Antifibrotic activity against BLM-induced pulmonary fibrosis in C57BL/6 mouse model assessed as reduction in collagen content in lungs at 100 to 200 mg/kg, po administered once daily starting from day 7 post BLM treatment and measured on day 14 by hydroxyproline method; type: functional, organism-based; settings: dose 100-200 mg/kg, time 14.0 day
Mus musculus [27] = assay: Antifibrotic activity against BLM-induced pulmonary fibrosis in C57BL/6 mouse model assessed as reduction in extracellular matrix generation at 200 mg/kg, po administered once daily starting from day 7 post BLM treatment and measured on day 14 by hydroxyproline method; type: functional, organism-based; settings: time 14.0 day
Pulmonary fibroblast [28] = assay: Inhibition of TGF-beta1 induced cell stimulation in mouse pulmonary fibroblast cells assessed as reduction in alpha-SMA protein expression at 10 to 40 uM incubated for 24 hrs by Western blot analysis; type: functional, cell-based; settings: dose 10-40 µM
Pulmonary fibroblast [29] = assay: Inhibition of TGF-beta1 induced extracellular matrix development in mouse pulmonary fibroblast cells assessed as reduction in alpha-SMA mRNA expression at 10 to 40 uM incubated for 24 hrs by RT-PCR analysis; type: functional, cell-based; settings: dose 10-40 µM
[30] = target: Mothers against decapentaplegic homolog 3 (Mus musculus) (UniProt Q8BUN5); assay: Inhibition of TGF-beta1 induced Smad3 phosphorylation in mouse pulmonary fibroblast cells at 10 to 40 uM incubated for 0.5 hrs by Western blot analysis; type: cell-based; settings: dose 10-40 µM
Sequence of Mothers against decapentaplegic homolog 3 (Mus musculus) (Q8BUN5 whole entry, looked up): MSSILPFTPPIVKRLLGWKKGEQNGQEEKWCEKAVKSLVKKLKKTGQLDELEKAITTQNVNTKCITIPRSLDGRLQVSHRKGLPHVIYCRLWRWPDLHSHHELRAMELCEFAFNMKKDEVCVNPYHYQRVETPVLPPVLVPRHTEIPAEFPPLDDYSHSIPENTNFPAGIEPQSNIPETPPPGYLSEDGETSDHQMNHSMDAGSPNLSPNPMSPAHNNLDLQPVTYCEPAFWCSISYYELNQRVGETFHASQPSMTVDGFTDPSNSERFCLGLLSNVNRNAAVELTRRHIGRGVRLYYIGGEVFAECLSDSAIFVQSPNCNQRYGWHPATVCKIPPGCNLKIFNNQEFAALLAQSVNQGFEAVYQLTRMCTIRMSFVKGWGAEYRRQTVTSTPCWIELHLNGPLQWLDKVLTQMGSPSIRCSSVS

## C=C[C@]1(C)C[C@@H](O)[C@]2(C)[C@H](C)CC[C@]3(C/C(=C\c4ccc(C(=O)NC5CCCCC5)cc4)C(=O)[C@H]32)[C@@H](C)[C@@H]1O
[1]
  Activity: 58.4%
Staphylococcus aureus
  MIC: > 1000 µg/mL
Escherichia coli
  MIC: > 1000 µg/mL
Bacillus subtilis
  MIC: > 1000 µg/mL
[2]
  IC50: 160 µM
[3]
  IC50: 60.3 µM
[4]
  Cmax: 2270 ng/mL
[5]
  AUC(0-t) at 12 h: 2900 ng·h/mL
[6]
  Tmax: 39.6 s
[7]
  half-life: 29.3 min
[8]
  clearance: 27.1 mL/min
[9]
  Cmax: 2160 ng/mL
[10]
  AUC(0-t) at 18 h: 17800 ng·h/mL
[11]
  Tmax: 3.33 h
[12]
  half-life: 552 min
[13]
  CL/F: 7.62 mL/min
[14]
  bioavailability: 61.2%
[15]
  Activity: Non-Toxic
[16]
  Activity: Non-Toxic
[17]
  Activity: Non-Toxic
[18]
  Activity: Non-Toxic
Mus musculus [19]
  Activity: Active
Mus musculus [20]
  Activity: 76.47%
Mus musculus [21]
  Activity: 38.85%
Mus musculus [22]
  Activity: 51.03%
Mus musculus [23]
  Activity: Active
Mus musculus [24]
  Activity: Active
Mus musculus [25]
  Activity: Active
Mus musculus [26]
  Activity: Active
Mus musculus [27]
  Activity: Active
Pulmonary fibroblast [28]
  inhibition: Active
Pulmonary fibroblast [29]
  inhibition: Active
[30]
  inhibition: Active
